In PMC5748531, “Antimycobacterial Activities of N-Substituted-Glycinyl 1H-1,2,3-Triazolyl Oxazolidinones and Analytical Method Development and Validation for a Representative Compound” (Scientia Pharmaceutica, 2017):
In brackets after ≈: the same amount, converted by molar mass.

Experiments:
[1] = Drug cytotoxicity control plate assay (MTT cell proliferation); settings: mouse
[2] = tested on: Mtb H37Rv, INH-R, RMP-R and OFX-R Mtb; test: MIC screening, all Mtb strains tested; assay type: cell-based, Mycobacterium tuberculosis; settings: range over H37Rv
Mtb H37Rv (SRI 1345) [3] = test: MIC broth microdilution, Mtb H37Rv; assay type: cell-based; settings: Mycobacterium tuberculosis, 168 h, read-out: MIC H37Rv
in vitro = settings: mouse
Mtb H37Rv (SRI 1345) [4] = test: Low-oxygen recovery assay (LORA), non-replicating persistence; assay type: cell-based, Mycobacterium tuberculosis; settings: 7 days anaerobic then 7 days ambient, 37 °C
[5] = tested on: intracellular (macrophage) Mtb H37Rv (SRI 1345) in J774 cells; test: Intracellular (macrophage) drug screening assay; assay type: cell-based, Mycobacterium tuberculosis; settings: range at the three concentrations tested
Mtb H37Rv (SRI 1345) [6] = test: Minimal bactericidal concentration (MBC); assay type: cell-based; settings: Mycobacterium tuberculosis, read-out: MBC H37Rv
S. aureus = tested on: S. aureus; parameters: method as in PMID 23811087; settings: S. aureus in vitro; cited from earlier work
[7] = assay type: in vitro ADME; settings: 90 min, 50 μg/mL
Description: Aliquots of 0.5 mL of plasma samples (calibration standards) were mixed with 200 μL aliquots of internal standard solution using appropriate concentration (10–90 μg/mL) for PH-189 concentrations. The samples were loaded unto solid phase extraction (SPE) cartridges on a vacuum 20 position extraction manifold (Waters). The cartridges were pre-conditioned with 1 mL of acetonitrile followed by 1 mL of water. The loaded cartridges were washed with 1 mL of acetonitrile and the analytes (PH-189 and internal standard) were eluted with acetonitrile into a 1.5 mL glass vials. The collected samples were filtered using Kinesis syringe membrane filters (Kinesis Ltd, St Neots, UK) (13 mm) and were used for injection and analysis. The PH-189/internal standard ratios were used to calculate calibration curve and to determine PH-189 concentration in human plasma after 90 min at 37 °C.
Accuracy and precision of the UHPLC method for PH-189 was evaluated by preparing six sets of PH-189 in blank human plasma within the concentration ranges of the calibration curve. Accuracy and precision were performed in triplicate using four concentration levels of 1, 10, 50, and 90 μg/mL. […] Freezer-stored samples were thawed, extracted, and analyzed as previously mentioned. […]

[8] = Stock standard solution stability; assay type: physicochemical; settings: 100 μg/mL in acetonitrile, refrigerator (4 °C)
Description: Stock standard solutions of PH-189 and indapamide as internal standard were separately prepared by dissolving 10 mg of the compounds in 100 mL of acetonitrile to give stock concentrations of 100 μg/mL. Working solutions of PH-189 and internal standard were prepared by diluting the stock solutions with acetonitrile to obtain concentrations of 10 μg/mL and 90 μg/mL. Stock solutions were stable for at least 5 weeks when stored in a refrigerator (4 °C).

[9] = MTT % Viability (High Conc.), high conc., same as in macrophage assay
[10] = MTT % Viability (Low Conc.), low conc., same as in macrophage assay
[11] = MTT % Viability (Mid Conc.), mid conc., same as in macrophage assay
[12] = Mycobacterium tuberculosis, H37RV, 168 h, read-out: LORA, lowest concentration that visually inhibits growth

Compound	MIC (Mtb H37Rv (SRI 1345) [3])	viability (in vitro; MTT % Viability (High Conc.))	viability (in vitro; MTT % Viability (Low Conc.))	viability (in vitro; MTT % Viability (Mid Conc.))	MIC (Mtb H37Rv (SRI 1345) [4]; [12])	further results
O=C(NCC(=O)N1CCN(c2ccc(N3CC(Cn4ccnn4)OC3=O)cc2F)CC1)c1cc([N+](=O)[O-])cc([N+](=O)[O-])c1 (centres unmarked) [PH-193]	1.7 µM (≈ 1.02 µg/mL)					viability [1, 9]: 74%; viability [1, 10]: 100%; viability [1, 11]: 100%; MIC value range against all Mtb strains tested [2]: 0.052 to 3.3 µM
CCOC(=O)CC(=O)NCC(=O)N1CCN(c2ccc(N3CC(Cn4ccnn4)OC3=O)cc2F)CC1 (centres unmarked) [PH-169]	2.9 µM (≈ 1.5 µg/mL)	73%	76%	75%		
CC(=O)NCC(=O)N1CCN(c2ccc(N3CC(Cn4ccnn4)OC3=O)cc2F)CC1 (centres unmarked) [PH-165]	6.7 µM (≈ 2.98 µg/mL)	84%	91%	87%	> 58 µM	
CO[C@H]1/C=C/O[C@@]2(C)Oc3c(C)c(O)c4c(O)c(c(/C=N/N5CCN(C)CC5)c(O)c4c3C2=O)NC(=O)/C(C)=C\C=C\[C@H](C)[C@H](O)[C@@H](C)[C@@H](O)[C@@H](C)[C@H](OC(C)=O)[C@@H]1C [RMP, Rifampicin, reference compound]	0.06 µM (≈ 0.0494 µg/mL)					Macrophage log reduction in Mtb, range [5]: 1.62–2.43; viability ([1]; uninfected J774 macrophages, MTT % Viability (High Conc.), high conc., same as in macrophage assay): 84%; viability ([1]; uninfected J774 macrophages, MTT % Viability (Low Conc.), low conc., same as in macrophage assay): 92%; viability ([1]; uninfected J774 macrophages, MTT % Viability (Mid Conc.), mid conc., same as in macrophage assay): 85%; viability ([1]; uninfected J774 macrophages, MTT percent cell viability, range, range at the three concentrations tested): 84 to 92%; MIC (Mtb H37Rv (SRI 1345) [4]; Mycobacterium tuberculosis, H37RV, 168 h, lowest concentration that visually inhibits growth, read-out: LORA): 0.95 µM (≈ 0.782 µg/mL); MBC (Mtb H37Rv (SRI 1345) [6]): 1.56 µM (≈ 1.28 µg/mL)
NCC(=O)N1CCN(c2ccc(N3CC(Cn4ccnn4)OC3=O)cc2F)CC1 (centres unmarked) [PH-172]	3.6 µM (≈ 1.45 µg/mL)	71%	87%	72%	> 58 µM	MIC (Mtb H37Rv (SRI 1345) [4]; lowest concentration that visually inhibits growth, read-out: LORA): >58 µM
Cc1cn(CC2CN(c3ccc(N4CCN(C(=O)CNC(=O)c5cccnc5)CC4)c(F)c3)C(=O)O2)nn1 (centres unmarked) [PH-185]	5.7 to 11.5 µM (≈ 2.98 to 6.01 µg/mL)	39%	88%	94%		
Cc1cn(CC2CN(c3ccc(N4CCN(C(=O)CNC(=O)c5ccc([N+](=O)[O-])o5)CC4)c(F)c3)C(=O)O2)nn1 (centres unmarked) [PH-145]	0.5 µM (≈ 0.278 µg/mL)	75%	87%	93%		
Cc1cn(CC2CN(c3ccc(N4CCN(C(=O)CNC(=O)c5cc([N+](=O)[O-])cc([N+](=O)[O-])c5)CC4)c(F)c3)C(=O)O2)nn1 (centres unmarked) [PH-181]	3.3 µM (≈ 2.02 µg/mL)					viability [1, 9]: 39%; viability [1, 10]: 91%; viability [1, 11]: 88%; MIC value range against all Mtb strains tested [2]: 0.052 to 3.3 µM
Cc1cn(CC2CN(c3ccc(N4CCN(C(=O)CNC(=O)C(Cl)Cl)CC4)c(F)c3)C(=O)O2)nn1 (centres unmarked) [PH-182]	1.9 µM (≈ 1 µg/mL)	87%	84%	90%	0.015 to 5.7 µM (≈ 0.00793 to 3.01 µg/mL)	
Cc1cn(CC2CN(c3ccc(N4CCN(C(=O)CN)CC4)c(F)c3)C(=O)O2)nn1 (centres unmarked) [PH-151]	5.8 µM (≈ 2.42 µg/mL)	74%	83%	87%	> 58 µM	
O=C(NCC(=O)N1CCN(c2ccc(N3CC(Cn4ccnn4)OC3=O)cc2F)CC1)c1cccnc1 (centres unmarked) [PH-195]	3.9 µM (≈ 1.98 µg/mL)	71%	100%	100%		
O=C(NCC(=O)N1CCN(c2ccc(N3CC(Cn4ccnn4)OC3=O)cc2F)CC1)c1ccc([N+](=O)[O-])o1 (centres unmarked) [PH-189]	0.5 µM (≈ 0.271 µg/mL)	86%	98%	88%		MIC value in the presence of 50% human plasma (S. aureus): remained unchanged; average amount of PH-189 found in human plasma [7]: 48.79 µg/mL; recovered from human plasma [7]: more than 90%; stock solutions stable for [8]: at least 5 weeks
CCOC(=O)CC(=O)NCC(=O)N1CCN(c2ccc(N3CC(Cn4cc(C)nn4)OC3=O)cc2F)CC1 (centres unmarked) [PH-150]	5.8 µM (≈ 3.08 µg/mL)	62%	78%	82%	> 58 µM	
